Patent US20260132160A1, “IRON REPLACEMENT TREATMENTS” (The General Hospital Corporation, priority 2022, published 2026)
Entries after “also recorded” stand apart in the source; their conditions may differ.

Columns and labels:
[1] = system: Tmprss6 knockout mice; assay: Therapeutic efficacy in mouse model of iron refractory iron deficiency anemia; assay type: in vivo
Protocol: Tmprss6 knockout mice received 29 intraperitoneal injections each containing 25 μg Fe as Fe-BBG (1.3±0.18 μg Fe per gram body weight, N=5 mice, 2 male, 3 female) or containing saline (placebo, N=5 mice, 2 male, 3 female) over 15 days. The cumulative dose of Fe was 725 μg Fe (37±0.53 μg Fe per gram body weight). The mice were euthanized 120 min after the final injection. Blood was harvested for measurement of complete blood counts, and nonheme Fe parameters. Bone marrow and liver tissue were analyzed by qPCR for expression of genes related to erythropoietic activity, Fe exposure, oxidative stress, and inflammation, the data are tabulated in FIG. 15. Clinical chemistry was also recorded, see Example 16 below. FIG. 15 data are shown as mean±standard deviation. Statistical differences between groups were determined by two-tailed Student's t-test for normally distributed values or Mann-Whitney (/test for non-normally distributed values. Significant differences are indicated by *P<0.05, **P<0.01, ****P<0.0001.

[2] = system: normal male C57BL/6 mice; assay: Serum nonheme iron parameters after i.v. injection (ferrozine assay); assay type: in vivo, mouse
Protocol: The in vivo efficacy of Fe-BBG as a direct-to-transferrin Fe replacement drug was preliminary evaluated in normal male C57BL/6mice. Mice received either 0.01 mmol Fe-BBG/kg (0.56 μg Fe per g body weight), 0.1 mmol Fe-BBG/kg (5.6 μg Fe per g body weight), or placebo (saline vehicle) via tail vein injection and were euthanized either 5 min, 60 min or 100 min post-injection. Serum nonheme iron parameters were then quantified using the spectrophotometric ferrozine assay.
FIG. 9 compares serum iron, total iron binding capacibity (TIBC), and unbound iron binding capacity (UIBC), recorded in mice treated with placebo and in serum harvested either 5 min, 60 min, or 100 min after Fe-BBG injection. The percentage transferrin saturation (% TSAT) was calculated at the 60 min and 100 min time points, at which point Fe-BBG and the BBG ligand remaining after trans-chelation with apo-transferrin had diminished to levels that will not interfere with the spectrophotometric assay.

[3] = Pharmacokinetics by dynamic magnetic resonance imaging; assay type: in vivo; settings: mouse
Text: Fe-BBG is paramagnetic, which enables us to monitor Fe-BBG blood clearance and excretion through dynamic magnetic resonance imaging.

[4] = molecular target: apo-transferrin (Homo sapiens, UniProt P02787); assay: Time course of Fe3+ transfer to apo-transferrin (fluorescence at 330 nm); assay type: biochemical; settings: 40 μM Fe-BBG, 20 μM apo-transferrin, pH 7.4; instrument temporal resolution 6 s
Sequence of apo-transferrin (P02787 20-698): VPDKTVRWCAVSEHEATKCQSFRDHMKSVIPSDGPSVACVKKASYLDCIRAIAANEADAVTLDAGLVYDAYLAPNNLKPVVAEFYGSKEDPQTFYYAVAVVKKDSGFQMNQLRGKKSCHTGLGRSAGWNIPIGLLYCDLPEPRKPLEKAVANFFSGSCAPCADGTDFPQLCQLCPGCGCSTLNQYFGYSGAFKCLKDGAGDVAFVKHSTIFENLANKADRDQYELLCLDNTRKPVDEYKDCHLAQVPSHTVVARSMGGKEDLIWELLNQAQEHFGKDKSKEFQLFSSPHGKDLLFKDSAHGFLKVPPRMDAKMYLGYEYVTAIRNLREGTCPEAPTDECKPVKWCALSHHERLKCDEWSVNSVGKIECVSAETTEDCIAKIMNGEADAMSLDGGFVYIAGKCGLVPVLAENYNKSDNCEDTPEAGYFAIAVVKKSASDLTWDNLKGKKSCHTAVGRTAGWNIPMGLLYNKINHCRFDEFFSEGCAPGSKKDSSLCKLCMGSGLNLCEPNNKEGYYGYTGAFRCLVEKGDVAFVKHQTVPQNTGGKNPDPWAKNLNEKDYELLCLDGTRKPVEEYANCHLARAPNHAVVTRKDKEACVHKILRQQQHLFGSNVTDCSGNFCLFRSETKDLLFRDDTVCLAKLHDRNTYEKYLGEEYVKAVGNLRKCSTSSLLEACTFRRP
Protocol: FIG. 5 plots the time course of Fe^3+ transfer of Fe-BBG to transferrin. The reaction was monitored through the quenching of apo-transferrin intrinsic fluorescence (conditions: 40 μM Fe-BBG, 20 μM apo-transferrin, 50 mM HEPES buffer supplemented with 25 mM HCO3, pH 7.4; 25° C. λEx=280 nm.). Fe^3+ transfer from Fe-BBG to apo-transferrin was complete within 6 s. The temporal resolution of the instrument is 6 s, and the reaction is too fast for us to quantify kinetics.

[5] = Labile iron in serum after i.v. injection (dihydrorhodamine 123 oxidation); assay type: in vivo, mouse
Protocol: These are the same serum samples as in FIG. 9. The assay was performed as described in Blood 2003, 102 (7), 2670-2677.
To quantify labile iron released by Fe-BBG after intravenous injection, male C57BL/6 mice received either 0.01 mmol Fe-BBG/kg (0.56 μg Fe per g body weight), 0.1 mmol Fe-BBG/kg (5.6 μg Fe per g body weight), or placebo (saline vehicle) via tail vein injection and were euthanized either 5 min, 60 min or 100 min post-injection. Blood serum was harvested and labile Fe in each sample quantified by spectrophotometrically monitoring the rate of dihydrorhodamine 123 oxidation under redox forcing conditions, as reported in Blood 2003, 102 (7), 2670-2677 and described below:
Quadruplicates of 20 μL serum were transferred to clear-bottom 96-well plates. To 2 of the wells was added 180 μL iron-free HEPES buffered saline (HBS) (preincubated at 37° C.) containing 40 μM ascorbate and 50 µM dihydrorhodamine 123 (DHR). […] The kinetics of fluorescence increase were followed at 37° C. in a Molecular Devices FlexStation 3 microplate reader with 485/538 nm excitation/emission filter pair, for 40 minutes, with readings every 2 minutes. The slopes (R) of DHR fluorescence intensity with time were calculated from measurements taken between 16 and 40 minutes and are given as FU·minute^−1 (fluorescence units per minute). […]

[6] = 29 i.p. injections of 25 μg Fe over 15 days, vs placebo
[7] = 120 min after final injection, vs placebo
[8] = 0.56 or 5.6 μg Fe per g i.v., 5, 60, 100 min, vs placebo

O.O.O=C([O-])CC[C@H]1C(=O)[O][Fe]2[O]c3ccccc3CN1Cc1ccccc1[O]2 [Fe-BBG]
hematocrit [1, 6]: increased significantly | hemoglobin [1, 6]: significant elevation | mean corpuscle volume [1, 6]: significantly increased | red cell width [1, 6]: significantly increased | mean % TSAT increase [1, 7]: ~7 fold | serum Fe [1, 7]: elevated | total iron binding capacity (TIBC) [1, 7]: unchanged relative to placebo | unbound iron binding capacity (UIBC) [1, 7]: concomitant decrease | clearance of Fe-BBG from serum ([1]; 120 min after the final injection): cleared entirely | bone marrow erythroferrone (Erfe) expression ([1]; qPCR): significantly downregulated | glycophorin A (GypA) expression ([1]; qPCR, bone marrow): downregulated | transferrin receptor type 1 (Tfrc) expression ([1]; qPCR, bone marrow): downregulated | other hematology parameters ([1]; vs placebo): No noteworthy differences | serum iron [2, 8]: rapidly raises | total iron binding capacity (TIBC) [2, 8]: rapidly raises; also recorded: does not decrease | unbound iron binding capacity (UIBC) ([2]; 0.56 or 5.6 μg Fe per g i.v., vs placebo): does not reduce UIBC significantly | percentage transferrin saturation (% TSAT) ([2]; 60 and 100 min, vs placebo): elevates % TSAT significantly | total serum nonheme Fe relative to placebo treated mice ([2]; 5 min after 5.6 μg Fe/g): 25 fold | blood elimination half life (vena cava MR signal) ([3]; 0.14 mmol/kg injection, monoexponential fit): 5.5 ± 2.8 min | hepatobiliary excretion (liver, gallbladder, bowel enhancement) ([3]; MRI): partial hepatobiliary excretion | renal excretion (kidney enhancement) ([3]; MRI): rapid elimination through the kidneys; also recorded: rapid urinary excretion | time to complete Fe^3+ transfer to apo-transferrin [4]: ≤ 6 s | labile iron release in vivo ([5]; 0.56 or 5.6 μg Fe per g, 5, 60, 100 min): does not contribute detectable quantities of labile Fe; also recorded: does not release labile iron in vivo | labile Fe concentration in serum ([5]; 5 min after injection of 5.6 μg Fe/g): < 0.2 µM
